According to patent US11000033B2, “Ketone or oxime compound, and herbicide” (NISSAN CHEMICAL CORPORATION, priority 2014, dated 2021):

Assays:
Assay type in all cases: in vivo
[1] = tested on: Echinochloa oryzacola Vasing.; test: Test Example 1: herbicidal activity, application before weed generation in submerged conditions (symbol A); settings: application herbicide amount 320 g/ha
Outline: (§1)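 Scores run 0 to 5 by herbicidal ratio, with 5 meaning 90% or more and 0 meaning 5% or lower, read 3 weeks after treatment. Compound was applied as a diluted emulsion to the water surface of submerged alluvial-soil pots on the day weed seeds were sown.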

Monochoria vaginalis = test: Test Example 1: herbicidal activity, application before weed generation in submerged conditions (symbol C); settings: application herbicide amount 320 g/ha
Outline: as §1

Leptochloa chinensis = test: Test Example 3: herbicidal effect by foliage application, Wagner pot (symbol D); settings: application herbicide amount 320 g/ha; for D (Leptochloa chinensis) herbicidal effect grade: Table 24
Outline: (§2)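 The compound, formulated as an emulsion and diluted with water to a predetermined rate, is applied uniformly to leaves of two-week-old seedlings growing in submerged alluvial soil at 25–30 °C. Rice is included. Each plant is assessed 3 weeks later using defined criteria.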

Cyperus difformis = test: Test Example 3: herbicidal effect by foliage application, Wagner pot (symbol E); settings: application herbicide amount 320 g/ha; for E herbicidal effect grade: Table 24
Outline: as §2

Lolium multiflorum Lam. = test: Test Example 4: herbicidal effect by soil treatment (symbol K)
Outline: (§3)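 Seeds were sown in sterilized diluvial soil, covered with about 1.5 cm of soil, and the soil surface was sprayed with a water-diluted emulsion of the compound at a predetermined rate. Plants grew in a greenhouse at 25° C. to 30° C.; effects were scored visually 3 weeks after application.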

Amaranthus retroflexus = test: Test Example 4: herbicidal effect by soil treatment (symbol N)
Outline: as §3

Chenopodium album [2] = test: Test Example 4: herbicidal effect by soil treatment (symbol O)
Outline: as §3

Galium spurium = test: Test Example 4: herbicidal effect by soil treatment (symbol Q)
Outline: as §3

rice = test: Test Example 4: effect on crop by soil treatment (symbol b); settings: for b: directly sowed rice plant, effect grade on crop: 320 g/ha
Outline: (§4)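 The test used sterilized diluvial soil. Seed was set down in spots and overlaid with about 1.5 cm of soil before growth in a greenhouse kept at 25° C. to 30° C.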

wheat [3] = test: Test Example 4: effect on crop by soil treatment (symbol e); settings: for e: wheat, effect grade on crop: 320 g/ha
Outline: as §4

beet = test: Test Example 4: effect on crop by soil treatment (symbol f); settings: for f: beet, effect grade on crop: 320 g/ha
Outline: as §4

rapeseed = test: Test Example 4: effect on crop by soil treatment (symbol g); settings: for g: rapeseed, effect grade on crop: 320 g/ha
Outline: as §4

Avena fatua = test: Test Example 5: herbicidal effect by foliage application, plastic box (symbol I); settings: 320 g/ha, 3 weeks after application
Outline: (§5)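 Visual herbicidal score, taken three weeks post-application, of seedlings sprayed on the foliage with water-diluted emulsion at a predetermined amount; plants were 14 days old, greenhouse-raised at 25° C. to 30° C.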

Apera spica-venti = test: Test Example 5: herbicidal effect by foliage application, plastic box (symbol L); settings: 320 g/ha, 3 weeks after application
Outline: as §5

Abutilon theophrasti = test: Test Example 5: herbicidal effect by foliage application, plastic box (symbol M); settings: 320 g/ha, 3 weeks after application
Outline: as §5

Chenopodium album [4] = test: Test Example 5: herbicidal effect by foliage application, plastic box (symbol O); settings: 320 g/ha, 3 weeks after application
Outline: as §5

Stellaria media = test: Test Example 5: herbicidal effect by foliage application, plastic box (symbol P); settings: 320 g/ha, 3 weeks after application
Outline: as §5

rice plant = test: Test Example 5: effect on crop by foliage application, plastic box (symbol b); settings: 320 g/ha, 3 weeks after application
Outline: (§6)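 Plants were raised from seed in a greenhouse (25° C. to 30° C.) after sowing in a plastic box of sterilized diluvial soil.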

wheat [5] = test: Test Example 5: effect on crop by foliage application, plastic box (symbol e); settings: 320 g/ha, 3 weeks after application
Outline: as §6

[6] = application herbicide amount 320 g/ha

| Structure (SMILES) | A (Echinochloa oryzacola Vasing.) herbicidal effect grade [1] | C (Monochoria vaginalis) herbicidal effect grade (Monochoria vaginalis) | D (Leptochloa chinensis) herbicidal effect grade (Leptochloa chinensis) | E herbicidal effect grade (Cyperus difformis) | I: Avena fatua, herbicidal effect grade (Avena fatua) | L: Apera spica-venti, herbicidal effect grade (Apera spica-venti) | M: Abutilon theophrasti, herbicidal effect grade (Abutilon theophrasti) | O: Chenopodium album, herbicidal effect grade (Chenopodium album [4]) | P: Stellaria media, herbicidal effect grade (Stellaria media) | b: directly sowed rice plant, effect on crop grade (rice plant) | e: wheat, effect on crop grade (wheat [5]) | Herbicidal effect grade, A: Echinochloa oryzacola Vasing. [1] | Herbicidal effect grade, C: Monochoria vaginalis (Monochoria vaginalis) | herbicidal effect on D (Leptochloa chinensis), grade 0-5 (Leptochloa chinensis) | herbicidal effect on E, grade 0-5 (Cyperus difformis) | K: Lolium multiflorum Lam., herbicidal effect grade (Lolium multiflorum Lam.; 320 g/ha) | N: Amaranthus retroflexus, herbicidal effect grade (Amaranthus retroflexus; 320 g/ha) | O: Chenopodium album, herbicidal effect grade (Chenopodium album [2]; 320 g/ha) | Q: Galium spurium, herbicidal effect grade (Galium spurium; 320 g/ha) | b: directly sowed rice plant, effect grade on crop (rice) | other results |
| --- | --- | --- | --- | --- | --- | --- | --- | --- | --- | --- | --- | --- | --- | --- | --- | --- | --- | --- | --- | --- | --- |
| CCC(CC1CC(O)=C(c2c(C)cc(Br)cc2OC)C1=O)=NOC (mixture of isomers) [13-001] | 5 (Herbicidal ratio of 90% or more (almost completely withered)) | 0 (Herbicidal ratio of 5% or lower (almost no effect)) | 5 (Herbicidal ratio of 90% or more (almost completely withered)) | 4 (Herbicidal ratio of 70% or higher and lower than 90%) | 5 (Herbicidal ratio of 90% or more (almost completely withered)) | 5 (Herbicidal ratio of 90% or more (almost completely withered)) | 1 (Herbicidal ratio of 5% or higher and lower than 20%) | 0 (Herbicidal ratio of 5% or lower (almost no effect)) | 0 (Herbicidal ratio of 5% or lower (almost no effect)) | 5 (Herbicidal ratio of 90% or more (almost completely withered)) | 5 (Herbicidal ratio of 90% or more (almost completely withered)) | – | – | – | – | – | – | – | – | – | K: Lolium multiflorum Lam., herbicidal effect grade (Lolium multiflorum Lam.; [6]): 5 (Herbicidal ratio of 90% or more (almost completely withered)); N: Amaranthus retroflexus, herbicidal effect grade (Amaranthus retroflexus; [6]): 0 (Herbicidal ratio of 5% or lower (almost no effect)); O: Chenopodium album, herbicidal effect grade (Chenopodium album [2]; [6]): 0 (Herbicidal ratio of 5% or lower (almost no effect)); Q: Galium spurium, herbicidal effect grade (Galium spurium; [6]): 0 (Herbicidal ratio of 5% or lower (almost no effect)); b: directly sowed rice plant, effect on crop grade (rice; [6]): 5 (Herbicidal ratio of 90% or more (almost completely withered)); e: wheat, effect on crop grade (wheat [3]; [6]): 0 (Herbicidal ratio of 5% or lower (almost no effect)); f: beet, effect on crop grade (beet; [6]): 0 (Herbicidal ratio of 5% or lower (almost no effect)); g: rapeseed, effect on crop grade (rapeseed; [6]): 0 (Herbicidal ratio of 5% or lower (almost no effect)) |
| Cc1cc(-n2cc(Cl)cn2)cc(C)c1C1=C(O)CC(CC(=NOCC(F)(F)F)C(C)C)C1=O (stereo not shown) [9-014] | 5 (Herbicidal ratio of 90% or more (almost completely withered)) | 2 (Herbicidal ratio of 20% or higher and lower than 40%) | 5 (Herbicidal ratio of 90% or more (almost completely withered)) | 5 (Herbicidal ratio of 90% or more (almost completely withered)) | 4 (Herbicidal ratio of 70% or higher and lower than 90%) | 3 (Herbicidal ratio of 40% or higher and lower than 70%) | 0 (Herbicidal ratio of 5% or lower (almost no effect)) | 0 (Herbicidal ratio of 5% or lower (almost no effect)) | 0 (Herbicidal ratio of 5% or lower (almost no effect)) | 5 (Herbicidal ratio of 90% or more (almost completely withered)) | 1 (Herbicidal ratio of 5% or higher and lower than 20%) | – | – | – | – | – | – | – | – | – | Herbicidal effect grade, K: Lolium multiflorum Lam. (Lolium multiflorum Lam.; [6]): 0 (Herbicidal ratio of 5% or lower (almost no effect)); Herbicidal effect grade, N: Amaranthus retroflexus (Amaranthus retroflexus; [6]): 0 (Herbicidal ratio of 5% or lower (almost no effect)); Herbicidal effect grade, O: Chenopodium album (Chenopodium album [2]; [6]): 0 (Herbicidal ratio of 5% or lower (almost no effect)); Herbicidal effect grade, Q: Galium spurium (Galium spurium; [6]): 0 (Herbicidal ratio of 5% or lower (almost no effect)); Effect on crop grade, b: directly sowed rice plant (rice; [6]): 1 (Herbicidal ratio of 5% or higher and lower than 20%); Effect on crop grade, e: wheat (wheat [3]; [6]): 0 (Herbicidal ratio of 5% or lower (almost no effect)); Effect on crop grade, f: beet (beet; [6]): 0 (Herbicidal ratio of 5% or lower (almost no effect)); Effect on crop grade, g: rapeseed (rapeseed; [6]): 0 (Herbicidal ratio of 5% or lower (almost no effect)) |
| CC(CC1CC(O)=C(c2c(C)cc(C)cc2C)C1=O)=NOCc1cccc(Cl)c1 (stereo not shown) [1-114] | – | – | – | – | – | – | – | – | – | – | – | 5 (Herbicidal ratio of 90% or more (almost completely withered)) | 5 (Herbicidal ratio of 90% or more (almost completely withered)) | 5 (Herbicidal ratio of 90% or more (almost completely withered)) | 2 (Herbicidal ratio of 20% or higher and lower than 40%) | 5 (Herbicidal ratio of 90% or more (almost completely withered)) | 0 (Herbicidal ratio of 5% or lower (almost no effect)) | 0 (Herbicidal ratio of 5% or lower (almost no effect)) | 0 (Herbicidal ratio of 5% or lower (almost no effect)) | 3 (Herbicidal ratio of 40% or higher and lower than 70%) | e: wheat, effect grade on crop (wheat [3]): 0 (Herbicidal ratio of 5% or lower (almost no effect)); f: beet, effect grade on crop (beet): 0 (Herbicidal ratio of 5% or lower (almost no effect)); g: rapeseed, effect grade on crop (rapeseed): 1 (Herbicidal ratio of 5% or higher and lower than 20%); I: Avena fatua, herbicidal effect (criteria 0-5) (Avena fatua): 5 (Herbicidal ratio of 90% or more (almost completely withered)); L: Apera spica-venti, herbicidal effect (criteria 0-5) (Apera spica-venti): 5 (Herbicidal ratio of 90% or more (almost completely withered)); M: Abutilon theophrasti, herbicidal effect (criteria 0-5) (Abutilon theophrasti): 1 (Herbicidal ratio of 5% or higher and lower than 20%); O: Chenopodium album, herbicidal effect (criteria 0-5) (Chenopodium album [4]): 3 (Herbicidal ratio of 40% or higher and lower than 70%); P: Stellaria media, herbicidal effect (criteria 0-5) (Stellaria media): 3 (Herbicidal ratio of 40% or higher and lower than 70%); b: directly sowed rice plant, effect on crop (criteria 0-5) (rice plant): 5 (Herbicidal ratio of 90% or more (almost completely withered)); e: wheat, effect on crop (criteria 0-5) (wheat [5]): 4 (Herbicidal ratio of 70% or higher and lower than 90%) |
| COc1ccc(CON=C(C)CC2CC(O)=C(c3c(C)cc(C)cc3C)C2=O)cc1 (stereo not shown) [1-112] | – | – | – | – | – | – | – | – | – | – | – | 5 (Herbicidal ratio of 90% or more (almost completely withered)) | 5 (Herbicidal ratio of 90% or more (almost completely withered)) | 5 (Herbicidal ratio of 90% or more (almost completely withered)) | 5 (Herbicidal ratio of 90% or more (almost completely withered)) | 5 (Herbicidal ratio of 90% or more (almost completely withered)) | 0 (Herbicidal ratio of 5% or lower (almost no effect)) | 0 (Herbicidal ratio of 5% or lower (almost no effect)) | 0 (Herbicidal ratio of 5% or lower (almost no effect)) | 5 (Herbicidal ratio of 90% or more (almost completely withered)) | e: wheat, effect grade on crop (wheat [3]): 0 (Herbicidal ratio of 5% or lower (almost no effect)); f: beet, effect grade on crop (beet): 0 (Herbicidal ratio of 5% or lower (almost no effect)); g: rapeseed, effect grade on crop (rapeseed): 0 (Herbicidal ratio of 5% or lower (almost no effect)); I: Avena fatua, herbicidal effect (criteria 0-5) (Avena fatua): 5 (Herbicidal ratio of 90% or more (almost completely withered)); L: Apera spica-venti, herbicidal effect (criteria 0-5) (Apera spica-venti): 5 (Herbicidal ratio of 90% or more (almost completely withered)); M: Abutilon theophrasti, herbicidal effect (criteria 0-5) (Abutilon theophrasti): 1 (Herbicidal ratio of 5% or higher and lower than 20%); O: Chenopodium album, herbicidal effect (criteria 0-5) (Chenopodium album [4]): 3 (Herbicidal ratio of 40% or higher and lower than 70%); P: Stellaria media, herbicidal effect (criteria 0-5) (Stellaria media): 1 (Herbicidal ratio of 5% or higher and lower than 20%); b: directly sowed rice plant, effect on crop (criteria 0-5) (rice plant): 5 (Herbicidal ratio of 90% or more (almost completely withered)); e: wheat, effect on crop (criteria 0-5) (wheat [5]): 5 (Herbicidal ratio of 90% or more (almost completely withered)) |
